Experimental findings from patent US12187723B2 (BRISTOL-MYERS SQUIBB COMPANY, priority 2019, dated 2025) are described below.

One experiment concerns the target T1, human TLR8 (Homo sapiens, UniProt Q9NR97).
T1 construct: host or cells: HEK-Blue cells
T1 sequence (Q9NR97 27-1041): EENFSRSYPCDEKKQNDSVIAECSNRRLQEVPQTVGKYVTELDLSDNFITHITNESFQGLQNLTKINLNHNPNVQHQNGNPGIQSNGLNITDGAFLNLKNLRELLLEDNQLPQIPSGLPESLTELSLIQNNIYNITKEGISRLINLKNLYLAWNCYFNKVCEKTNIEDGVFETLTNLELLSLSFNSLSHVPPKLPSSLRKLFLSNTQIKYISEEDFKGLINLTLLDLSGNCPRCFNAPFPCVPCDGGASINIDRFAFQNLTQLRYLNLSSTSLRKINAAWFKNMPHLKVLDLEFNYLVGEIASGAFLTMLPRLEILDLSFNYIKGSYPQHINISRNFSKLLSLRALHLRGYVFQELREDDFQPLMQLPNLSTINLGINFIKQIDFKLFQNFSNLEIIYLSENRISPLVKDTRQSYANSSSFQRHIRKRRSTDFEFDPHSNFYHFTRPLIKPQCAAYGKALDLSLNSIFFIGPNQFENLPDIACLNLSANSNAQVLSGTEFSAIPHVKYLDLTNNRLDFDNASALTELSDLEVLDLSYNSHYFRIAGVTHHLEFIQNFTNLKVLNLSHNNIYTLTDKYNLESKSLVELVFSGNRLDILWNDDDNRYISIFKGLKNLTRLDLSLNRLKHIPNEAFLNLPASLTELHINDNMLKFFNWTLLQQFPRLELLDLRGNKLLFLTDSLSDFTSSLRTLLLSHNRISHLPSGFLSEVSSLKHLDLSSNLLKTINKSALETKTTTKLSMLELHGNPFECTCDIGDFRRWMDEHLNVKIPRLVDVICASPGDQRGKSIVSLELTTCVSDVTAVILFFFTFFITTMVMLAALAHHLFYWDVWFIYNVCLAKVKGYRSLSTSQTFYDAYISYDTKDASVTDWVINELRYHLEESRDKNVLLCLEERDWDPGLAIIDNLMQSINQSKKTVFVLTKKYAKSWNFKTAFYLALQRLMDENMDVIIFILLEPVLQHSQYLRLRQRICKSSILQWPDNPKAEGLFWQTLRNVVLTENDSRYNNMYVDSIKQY
Kind of experiment: TLR8 inhibition reporter assay (HEK-Blue SEAP). The experiment is classed as cell-based. Particulars: HEK-Blue cells overexpressing human TLR8, R848 15.9 μM, 22 hour incubation. In short, it runs like this: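 HEK-Blue cells overexpressing human TLR7, TLR8 or TLR9 carry a SEAP reporter driven by NF-κB/AP-1 sites. Compounds (0.05 nM–50 μM) were preincubated 30 min at room temperature, then cells were stimulated with gardiquimod 7.5 μM (TLR7), R848 15.9 μM (TLR8) or ODN2006 5 nM (TLR9) for 22 h at 37 °C.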
(In general: A reporter such as luciferase makes a cellular process visible.)

Another experiment deals with T2, human TLR7 (Homo sapiens, UniProt Q9NYK1).
T2 construct: host or cells: HEK-Blue cells
T2 sequence (Q9NYK1 27-1049): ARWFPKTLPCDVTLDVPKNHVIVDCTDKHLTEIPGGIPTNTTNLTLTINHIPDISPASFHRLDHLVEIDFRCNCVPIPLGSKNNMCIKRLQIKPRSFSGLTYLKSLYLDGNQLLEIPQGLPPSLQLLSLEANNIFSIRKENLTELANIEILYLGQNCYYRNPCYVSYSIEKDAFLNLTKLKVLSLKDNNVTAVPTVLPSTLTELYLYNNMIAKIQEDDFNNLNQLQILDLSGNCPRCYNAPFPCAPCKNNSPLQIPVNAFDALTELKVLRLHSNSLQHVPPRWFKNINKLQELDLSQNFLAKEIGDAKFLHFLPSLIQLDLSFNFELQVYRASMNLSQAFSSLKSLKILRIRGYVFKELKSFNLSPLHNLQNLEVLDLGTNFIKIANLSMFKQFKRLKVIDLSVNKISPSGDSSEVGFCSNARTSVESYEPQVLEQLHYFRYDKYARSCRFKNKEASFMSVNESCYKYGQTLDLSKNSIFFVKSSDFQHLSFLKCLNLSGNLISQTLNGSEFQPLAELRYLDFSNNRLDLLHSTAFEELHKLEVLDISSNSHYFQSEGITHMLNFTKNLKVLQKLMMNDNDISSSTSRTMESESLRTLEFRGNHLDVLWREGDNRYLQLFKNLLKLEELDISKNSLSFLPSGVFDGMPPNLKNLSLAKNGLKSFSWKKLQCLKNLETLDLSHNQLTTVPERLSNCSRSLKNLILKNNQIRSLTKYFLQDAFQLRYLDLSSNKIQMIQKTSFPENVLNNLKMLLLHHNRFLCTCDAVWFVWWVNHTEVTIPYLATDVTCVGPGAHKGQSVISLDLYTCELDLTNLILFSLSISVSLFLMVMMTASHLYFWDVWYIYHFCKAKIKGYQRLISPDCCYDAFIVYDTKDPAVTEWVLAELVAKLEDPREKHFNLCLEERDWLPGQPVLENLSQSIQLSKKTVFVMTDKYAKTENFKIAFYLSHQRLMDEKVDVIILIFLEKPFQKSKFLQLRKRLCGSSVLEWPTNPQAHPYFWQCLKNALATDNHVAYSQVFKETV
Kind of experiment: TLR7 inhibition reporter assay (HEK-Blue SEAP). Particulars: HEK-Blue cells overexpressing human TLR7, gardiquimod 7.5 μM, 22 hour incubation. Format: cell-based. In short, it runs like this: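 SEAP readout via HEK-Blue Detection medium after 22 h at 37 °C, 5% CO2 defines inhibition, normalized between agonist-plus-DMSO wells and a reference inhibitor. Compound dose range 0.05 nM–50 μM; TLR7 cells at 15,000/well (gardiquimod), TLR8 at 20,000/well (R848).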

The structures appear in SMILES notation.

`COc1cc(-c2cc3[nH]c(=O)n(C4CCC(N5CC6(CCOCC6)C5)CC4)c3cc2C(C)C)cn2ncnc12` (single isomer, unassigned) [Example 236, 1-(4-(7-oxa-2-azaspiro[3.5]nonan-2-yl)cyclohexyl)-6-isopropyl-5-(8-methoxy-[1,2,4]triazolo[1,5-a]pyridin-6-yl)-1,3-dihydro-2H-benzo[d]imidazol-2-one]: the IC50 on human TLR8 stood at 0.35 nM; at human TLR7, 3.54 nM.

Regarding `CCc1cc2c(cc1-c1cc(OC)c3ncnn3c1)[nH]c(=O)n2[C@@H]1CCCN(CC(C)(C)C)C1` [Example 180, (R)-6-ethyl-5-(8-methoxy-[1,2,4]triazolo[1,5-a]pyridin-6-yl)-1-(1-neopentylpiperidin-3-yl)-1,3-dihydro-2H-benzo[d]imidazol-2-one], the half-maximal inhibitory concentration (IC50) amounted to 4.29 nM against human TLR8 and 1.42 nM on human TLR7.

With `CCc1cc2c(cc1-c1cc(OC)c3ncnn3c1)[nH]c(=O)n2[C@@H]1CCCN(CCOC)C1` [Example 227, (R)-6-ethyl-5-(8-methoxy-[1,2,4]triazolo[1,5-a]pyridin-6-yl)-1-(1-(2-methoxyethyl)piperidin-3-yl)-1,3-dihydro-2H-benzo[d]imidazol-2-one], the figures for the half-inhibitory concentration (IC50) against human TLR8 and against human TLR7 were 4.42 nM and 2.86 nM, respectively.

In the case of `COc1cc(-c2cc3[nH]c(=O)n(C4CCC(N5CC(OC)C5)CC4)c3cc2C(C)C)cn2ncnc12` (centres unmarked) [Example 238, 6-isopropyl-5-(8-methoxy-[1,2,4]triazolo[1,5-a]pyridin-6-yl)-1-(4-(3-methoxyazetidin-1-yl)cyclohexyl)-1,3-dihydro-2H-benzo[d]imidazol-2-one], the IC50 on human TLR8 was found to be 0.26 nM; against human TLR7 it was 0.81 nM.

Take `CCc1cc2c(cc1-c1cc(OC)c3ncnn3c1)[nH]c(=O)n2[C@@H]1CCCN(CC2CCCC2)C1` [Example 209, (R)-1-(1-(cyclopentylmethyl)piperidin-3-yl)-6-ethyl-5-(8-methoxy-[1,2,4]triazolo[1,5-a]pyridin-6-yl)-1,3-dihydro-2H-benzo[d]imidazol-2-one]: the values for the concentration for half-maximal inhibition (IC50) at human TLR8 and at human TLR7 were 20.4 nM and 7.96 nM, respectively.

On to `COc1cc(-c2cc3[nH]c(=O)n([C@H]4CC[C@@H](NC(C)C)CC4)c3cc2C(C)C)cn2ncnc12` [Example 192, 6-isopropyl-1-((1s,4s)-4-(isopropylamino)cyclohexyl)-5-(8-methoxy-[1,2,4]triazolo[1,5-a]pyridin-6-yl)-1,3-dihydro-2H-benzo[d]imidazol-2-one], for which the IC50 worked out at 0.44 nM on human TLR8 and 1.97 nM against human TLR7.

For `CCc1cc2c(cc1-c1cc(OC)c3ncnn3c1)[nH]c(=O)n2[C@@H]1CCCN(C2COC2)C1` [Example 173, (R)-6-ethyl-5-(8-methoxy-[1,2,4]triazolo[1,5-a]pyridin-6-yl)-1-(1-(oxetan-3-yl)piperidin-3-yl)-1,3-dihydro-2H-benzo[d]imidazol-2-one], the 50% inhibitory concentration (IC50) came to 18 nM at human TLR8 and 32 nM at human TLR7.

As to `CCc1cc2c(cc1-c1cc(OC)c3ncnn3c1)[nH]c(=O)n2[C@@H]1CCCN(C2CCOCC2)C1` [Example 184, (R)-6-ethyl-5-(8-methoxy-[1,2,4]triazolo[1,5-a]pyridin-6-yl)-1-(1-(tetrahydro-2H-pyran-4-yl)piperidin-3-yl)-1,3-dihydro-2H-benzo[d]imidazol-2-one], the IC50 against human TLR8 came out at 14.3 nM; against human TLR7, 12.1 nM.

On to `Cc1c(-c2cc3[nH]c(=O)n([C@H]4CC[C@@H](N(C)C)CC4)c3cc2C(C)C)cn2ncnc2c1C` [Example 185, 5-(7,8-dimethyl-[1,2,4]triazolo[1,5-a]pyridin-6-yl)-1-((1s,4s)-4-(dimethylamino)cyclohexyl)-6-isopropyl-1,3-dihydro-2H-benzo[d]imidazol-2-one], for which the IC50 was found to be 0.36 nM against human TLR8 and 3.39 nM on human TLR7.

Turning to `Cc1cc2c(cc1-c1cc(C)c3ncnn3c1)[nH]c(=O)n2[C@@H]1CCCN(C)C1` [Example 15, (R)-6-methyl-5-(8-methyl-[1,2,4]triazolo[1,5-a]pyridin-6-yl)-1-(1-methylpiperidin-3-yl)-1,3-dihydro-2H-benzo[d]imidazol-2-one], the values for the half-inhibitory concentration (IC50) against human TLR8 and against human TLR7 were 22.9 nM and 24.6 nM, respectively.

Usually IC50 stands for the concentration at which inhibition is half-maximal. Higher therefore signals lower potency.
